In publication PMC7136958, “Targeting the pregnane X receptor using microbial metabolite mimicry” (EMBO Molecular Medicine, 2020):
“And” between values parts separate entries of the source, which are not always exact repeats. Equal values may be shown once.

Experiments:
C57BL/6 mice = experiment: 10 Day (acute) toxicity study in mice; type: in vivo, mouse
Description: The LS180 cell line was used to assess cell cytotoxicity using the MTT (3‐(4,5‐dimethylthiazolyl‐2)‐2,5‐diphenyltetrazolium bromide) assay as previously described (Bartonkova et al, 2015, 2016). […] FKK6 was selected as a lead compound for assessment, given that it had the more favorable PXR‐selective ligand activity in cells. […] The mice were gavaged for ten consecutive days and necropsied on day 12 with the collection of blood (serum). […] Similarly, a 30‐day toxicity test was conducted in mice using FKK6 at an oral dose of 200 μM in 0.8% DMSO per day. We chose this dose to stay within the safe DMSO dose administered to mice over 30 days. On day 30, we necropsied the mice and collected blood (serum).

[1] = target: T1, Mouse pregnane X receptor (mPXR) (Mus musculus, UniProt O54915); experiment: mPXR reporter (MRP2) activity in HEK293T cells; type: cell-based
T1 construct: expressed in transfected cells; host or cells: HEK293T
T1 sequence (O54915 whole entry): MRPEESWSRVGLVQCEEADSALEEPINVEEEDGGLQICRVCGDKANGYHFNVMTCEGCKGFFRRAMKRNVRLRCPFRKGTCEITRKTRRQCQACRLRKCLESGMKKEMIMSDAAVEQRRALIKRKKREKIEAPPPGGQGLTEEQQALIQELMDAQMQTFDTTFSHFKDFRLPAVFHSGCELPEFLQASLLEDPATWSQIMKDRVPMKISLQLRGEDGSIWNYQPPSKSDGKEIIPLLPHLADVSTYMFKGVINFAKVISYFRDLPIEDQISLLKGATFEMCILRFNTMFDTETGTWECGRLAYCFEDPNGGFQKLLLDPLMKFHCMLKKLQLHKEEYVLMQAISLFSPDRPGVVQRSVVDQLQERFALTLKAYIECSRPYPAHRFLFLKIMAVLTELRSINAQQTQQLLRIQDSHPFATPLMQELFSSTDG
Description: Reverse transfection assays were performed in Caco‐2 cells as previously published with the following modifications (Kublbeck et al, 2015). 3.0 × 10^4 cells per well were transfected using pSG5‐PXR plasmid (300 ng/well), β‐Gal expression plasmid (600 ng/well), and CYP3A4‐luciferase reporter (500 ng/well) (Huang et al, 2007). After 24‐h transfection using Lipofectamine® LTX ([…] of plasmid), cells were exposed to FKK5 for 24 h. Cell lysates were prepared for β‐Gal and luciferase assays as previously published (Huang et al, 2007). The data are expressed as mean ± SD RLU (relative light units from luciferase assay) normalized to β‐Gal activity in the same well. Differences were tested using 2‐way ANOVA with Tukey's multiple comparison test, and P < 0.05 was considered significant (*). Standard transient transfection assays (PXR, CAR) in HEK293T cells were performed as previously published (Huang et al, 2007).

ERK5 = ERK5 (Homo sapiens, UniProt Q13164); experiment: KINOMEscan select kinase screen; type: binding; settings: two experiments
Chain of ERK5 (Q13164 whole entry): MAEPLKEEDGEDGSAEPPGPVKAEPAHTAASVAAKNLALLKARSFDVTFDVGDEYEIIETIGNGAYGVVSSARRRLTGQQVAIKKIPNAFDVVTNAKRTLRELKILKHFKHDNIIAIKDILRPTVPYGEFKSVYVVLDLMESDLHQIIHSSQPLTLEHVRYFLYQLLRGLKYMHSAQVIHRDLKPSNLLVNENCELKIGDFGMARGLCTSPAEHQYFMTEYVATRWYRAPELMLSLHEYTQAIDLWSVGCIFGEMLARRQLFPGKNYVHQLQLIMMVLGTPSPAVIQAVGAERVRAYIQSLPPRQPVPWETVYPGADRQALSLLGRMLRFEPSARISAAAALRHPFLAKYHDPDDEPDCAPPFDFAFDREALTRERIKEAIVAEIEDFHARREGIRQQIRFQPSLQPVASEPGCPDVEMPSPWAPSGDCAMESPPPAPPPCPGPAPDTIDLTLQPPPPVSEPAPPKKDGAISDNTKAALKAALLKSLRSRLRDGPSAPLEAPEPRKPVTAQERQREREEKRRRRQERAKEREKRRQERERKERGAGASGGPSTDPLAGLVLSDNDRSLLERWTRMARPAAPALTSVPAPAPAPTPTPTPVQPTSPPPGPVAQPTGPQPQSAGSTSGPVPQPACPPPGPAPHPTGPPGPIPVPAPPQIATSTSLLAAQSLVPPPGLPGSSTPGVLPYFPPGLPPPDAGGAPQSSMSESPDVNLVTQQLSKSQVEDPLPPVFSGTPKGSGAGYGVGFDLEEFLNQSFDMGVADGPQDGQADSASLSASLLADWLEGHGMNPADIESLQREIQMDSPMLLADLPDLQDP
Description: (§1) Kinase Assays. The kinase inhibition assays were conducted by DiscoverX on a platform assay by Ambit BioSciences as described previously 16,17. FKK6 was screened at a single concentration of 10 μM in duplicate. The scanMAXSM assay panel measures 468 kinases
(§2) (https://www.discoverx.com/services/drug-discovery-development-services/kinase-profiling/kinomescan/scanmax). The assays measure a compound’s ability to inhibit binding of a canonical ligand substrate, with 0% activity of control corresponding to full inhibition and 100% activity of control to no inhibition. […]
(§3) quantitative measure of compound selectivity based on the number of kinase hits (enzymes inhibited) divided by the total number of distinct kinases tested. Three different activity cut-offs were analyzed – […]
(§4) ; and S(1) or % activity of control
(§5) < 1. To illustrate effect or lack of effect, an image of the entire family of kinases tested were grouped by families and S(35). The TREEspot Kinase dendrogram image was generated using TREEspot™ Software Tool and reprinted with permission from KINOME scan®, a division of DiscoveRx […]

CDK4 = CDK4 (Homo sapiens, UniProt P11802); experiment: KINOMEscan select kinase screen; type: binding; settings: two experiments
Chain of CDK4 (P11802 whole entry): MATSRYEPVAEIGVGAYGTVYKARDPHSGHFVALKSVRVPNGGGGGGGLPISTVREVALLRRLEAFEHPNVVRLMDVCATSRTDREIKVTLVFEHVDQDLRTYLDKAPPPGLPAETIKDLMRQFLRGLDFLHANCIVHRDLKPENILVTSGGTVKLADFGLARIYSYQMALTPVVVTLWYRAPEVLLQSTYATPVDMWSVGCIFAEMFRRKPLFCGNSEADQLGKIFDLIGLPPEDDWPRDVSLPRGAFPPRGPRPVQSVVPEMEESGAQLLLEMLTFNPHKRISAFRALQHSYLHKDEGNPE
Description: as §1, §2, §3, §4, §5

CDK5 = CDK5 (Homo sapiens, UniProt Q00535); experiment: KINOMEscan select kinase screen; type: binding; settings: two experiments
Chain of CDK5 (Q00535 whole entry): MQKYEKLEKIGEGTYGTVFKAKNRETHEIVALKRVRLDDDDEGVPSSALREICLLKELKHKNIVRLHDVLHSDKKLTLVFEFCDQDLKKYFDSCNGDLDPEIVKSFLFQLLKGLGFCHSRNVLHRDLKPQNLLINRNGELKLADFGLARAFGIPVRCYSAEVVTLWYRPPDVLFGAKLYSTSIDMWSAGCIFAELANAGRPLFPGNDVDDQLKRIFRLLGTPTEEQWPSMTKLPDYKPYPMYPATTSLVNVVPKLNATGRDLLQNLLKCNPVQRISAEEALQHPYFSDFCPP
Description: as §1, §2, §3, §4, §5

ERK3 = ERK3 (Homo sapiens, UniProt Q16659); experiment: KINOMEscan select kinase screen; type: binding; settings: two experiments
Chain of ERK3 (Q16659 whole entry): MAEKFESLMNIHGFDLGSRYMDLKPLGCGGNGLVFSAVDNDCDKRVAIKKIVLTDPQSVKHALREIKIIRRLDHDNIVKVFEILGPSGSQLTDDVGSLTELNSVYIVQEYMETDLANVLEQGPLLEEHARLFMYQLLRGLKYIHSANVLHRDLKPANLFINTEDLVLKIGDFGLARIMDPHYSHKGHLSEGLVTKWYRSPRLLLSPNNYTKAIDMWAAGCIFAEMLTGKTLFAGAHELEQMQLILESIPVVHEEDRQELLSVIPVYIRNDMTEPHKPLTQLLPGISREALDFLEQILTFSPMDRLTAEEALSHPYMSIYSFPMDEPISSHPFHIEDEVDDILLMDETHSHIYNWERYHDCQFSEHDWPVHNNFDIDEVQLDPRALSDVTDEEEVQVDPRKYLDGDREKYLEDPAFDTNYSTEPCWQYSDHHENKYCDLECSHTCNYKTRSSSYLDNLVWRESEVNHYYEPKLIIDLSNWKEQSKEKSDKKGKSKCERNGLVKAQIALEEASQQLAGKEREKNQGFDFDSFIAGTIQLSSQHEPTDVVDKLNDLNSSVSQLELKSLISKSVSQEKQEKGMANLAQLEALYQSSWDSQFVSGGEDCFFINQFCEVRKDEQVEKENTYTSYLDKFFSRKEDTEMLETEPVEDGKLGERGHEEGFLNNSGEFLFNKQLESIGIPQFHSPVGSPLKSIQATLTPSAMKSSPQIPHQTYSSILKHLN
Description: as §1, §2, §3, §4, §5

ERK4 = ERK4 (Homo sapiens, UniProt P31152); experiment: KINOMEscan select kinase screen; type: binding; settings: two experiments
Chain of ERK4 (P31152 whole entry): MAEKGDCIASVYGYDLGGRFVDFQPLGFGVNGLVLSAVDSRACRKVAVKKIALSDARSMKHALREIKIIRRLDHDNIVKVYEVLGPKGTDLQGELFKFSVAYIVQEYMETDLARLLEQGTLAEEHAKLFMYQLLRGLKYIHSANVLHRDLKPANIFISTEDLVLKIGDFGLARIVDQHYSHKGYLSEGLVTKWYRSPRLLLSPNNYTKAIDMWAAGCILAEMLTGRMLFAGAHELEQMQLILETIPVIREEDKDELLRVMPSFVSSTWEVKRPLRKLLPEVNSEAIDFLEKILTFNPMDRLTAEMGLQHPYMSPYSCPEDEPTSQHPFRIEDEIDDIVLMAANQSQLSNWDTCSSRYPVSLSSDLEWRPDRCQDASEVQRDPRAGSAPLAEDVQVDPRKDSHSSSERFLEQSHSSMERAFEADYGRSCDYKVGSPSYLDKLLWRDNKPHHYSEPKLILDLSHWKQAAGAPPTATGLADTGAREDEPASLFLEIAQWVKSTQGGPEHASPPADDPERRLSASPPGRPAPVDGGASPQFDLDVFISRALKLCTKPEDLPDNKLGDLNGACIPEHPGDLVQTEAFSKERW
Description: as §1, §2, §3, §4, §5

PKAC-alpha = PKAC-alpha (Homo sapiens, UniProt P17612); experiment: KINOMEscan select kinase screen; type: binding; settings: two experiments
Description: (§6) Kinase Assays. The kinase inhibition assays were conducted by DiscoverX on a platform assay by Ambit BioSciences as described previously 16,17. FKK6 was screened at a single concentration of 10 […]
(§7) The assays measure a compound’s ability to inhibit binding of a canonical ligand substrate, with 0% activity of control corresponding to full inhibition and 100% activity of control to no inhibition. […]

PKAC-beta = PKAC-beta (Homo sapiens, UniProt P22694); experiment: KINOMEscan select kinase screen; type: binding; settings: two experiments
Description: as §6, §7

C#CCC(O)(c1ccncc1)c1cc2ccccc2n1S(=O)(=O)c1ccccc1 (stereo not drawn) [FKK6]
serum chemistry profiles (C57BL/6 mice; 500 μM in 10% DMSO per day, gavage, ten days): did not alter
tissue pathology vs vehicle (C57BL/6 mice; 500 μM in 10% DMSO per day, gavage, ten days, necropsy day 12): did not significantly impact tissue pathology
Histopathology: Kidney (C57BL/6 mice; 10 day, n=6): Degenerative tubules/vacuoles (rare) (n=6)
Histopathology: Liver (C57BL/6 mice; 10 day, n=6): Mild periportal inflammation (n=5)
Histopathology: Lung (C57BL/6 mice; 10 day, n=6): Mild leukocytes (n=2)
Histopathology: Spleen (C57BL/6 mice; 10 day, n=6): Mild lymphoid hyperplasia (n=2)
mouse PXR activation [1]: did not significantly activate

O=C(c1ccncc1)c1cc2ccccc2n1S(=O)(=O)c1ccccc1 [FKK5, (1-(phenylsulfonyl)-1H-indol-2-yl)(pyridin-4-yl)methanone]
%Ctrl (ERK5; 10000 nM, 10 µM): 79 %Ctrl
remaining binding at 10 µM (ERK5; 10000 nM, read-out: %Ctrl): 94%
%Ctrl (ERK5; 25000 nM, 25 µM): 92 %Ctrl
remaining binding at 25 µM (ERK5; 25000 nM, read-out: %Ctrl): 100%
%Ctrl (CDK4; 10000 nM, 10 µM): 98 %Ctrl
remaining binding at 10 µM (CDK4; 10000 nM, read-out: %Ctrl): 100%
%Ctrl (CDK4; 25000 nM, 25 µM): 90 %Ctrl
remaining binding at 25 µM (CDK4; 25000 nM, read-out: %Ctrl): 95%
%Ctrl (CDK5; 10000 nM, 10 µM): 77 %Ctrl and 100 %Ctrl
%Ctrl (CDK5; 25000 nM, 25 µM): 61 %Ctrl and 100 %Ctrl
%Ctrl (ERK3; 10000 nM, 10 µM): 88 %Ctrl
remaining binding at 10 µM (ERK3; 10000 nM, read-out: %Ctrl): 100%
%Ctrl (ERK3; 25000 nM, 25 µM): 93 %Ctrl
remaining binding at 25 µM (ERK3; 25000 nM, read-out: %Ctrl): 80%
%Ctrl (ERK4; 10000 nM, 10 µM): 82 %Ctrl
remaining binding at 10 µM (ERK4; 10000 nM, read-out: %Ctrl): 97%
%Ctrl (ERK4; 25000 nM, 25 µM): 91 %Ctrl
remaining binding at 25 µM (ERK4; 25000 nM, read-out: %Ctrl): 89%
remaining binding at 10 µM (PKAC-alpha; 10000 nM, read-out: %Ctrl): 100%
%Ctrl (PKAC-alpha; 25000 nM, 25 µM): 95 %Ctrl
remaining binding at 25 µM (PKAC-alpha; 25000 nM, read-out: %Ctrl): 85%
%Ctrl (PKAC-beta; 10000 nM, 10 µM): 100 %Ctrl and 57 %Ctrl
%Ctrl (PKAC-beta; 25000 nM, 25 µM): 92 %Ctrl and 48 %Ctrl
